{
  "source": "patent US20250041245A1",
  "about": "“ENDOXIFEN FOR TREATMENT OF CANCERS” (Atossa Therapeutics, Inc., priority 2021, published 2025)",
  "type_in_all_cases": "cell-based, human",
  "key": {"[1]": {"test_system": "patient-derived tumor organoids (PDTOs), esophageal adenocarcinoma", "assay": "Endoxifen screen in PDTOs: esophageal adenocarcinoma", "set-up": "key to Personalization Category: Personalization categories range from High, Good, Moderate, Low, to None; Personalization categories range from High, Good, Moderate, Low, to None; Personalization categories range from High, Good, Moderate, Low, to None; Personalization categories range from High, Good, Moderate, Low, to None; Personalization categories range from High, Good, Moderate, Low, to None; AUC: unit not given beside the values", "experimental": "(§1) This example describes screening endoxifen in patient-derived tumor organoids. Endoxifen was tested as a single agent on tumor organoids derived from patients diagnosed with various cancer types using a personalized cancer treatment screening assay (PARIS© Test, SEngine Precision Medicine). The screen utilized patient-derived tumor organoids (PDTOs) along with high-throughput drug screening and machine learning-guided data analysis to quantify the efficacy of endoxifen against samples derived from individual patients diagnosed with various cancer types. PDTOs are self-organizing, three-dimensional organoid structures that recapitulate structural, functional, and genomic aspects of in vivo organs. The PDTOs were grown in culture from patient tumor biopsy samples.\n(§2) Fresh patient biopsy samples received following surgery were cleaned and purified. Immune cells (e.g., lymphocytes, blood cells), cancer-associated fibroblasts, and other non-tumor cells were removed to establish pure PDTOs for endoxifen testing. The tumor organoids were grown and expanded by supplying organ- and patient-specific growth factors and nutrients. The PDTOs were treated with increasing concentrations of endoxifen ranging from about 30 nM to about 10 μM, and the drug response was measured using a luminescence readout. A lower luminescence was indicative of a stronger drug response.\nThe results were analyzed using a “SEngine Precision Medicine” (SPM) scoring system to assess the sensitivity and personalization of each tumor organoid to endoxifen. […]\nThis example describes testing endoxifen efficacy against 17 distinct cancer types in patient-derived tumor organoids (PDTOs). […] For each PDTO sample, the drug response was measured using a luminescent readout over a range of endoxifen concentrations. The drug response was evaluated based on the area under the fitted dose response curve (AUC) and the SPM scoring system. […] The area under the curve was calculated from the normalized curve. […] The SPM scores were based on machine learning models that incorporate values for how well the drug kill patient cells (sensitivity metric), the relative drug responses of a patient to all other patients in a sample database (personalization metric), and knowledge of clinical outcomes for patients that had been evaluated with the personalized cancer screening assay (PARIS® Test, SEngine Precision Medicine).\n(§3) The SPM scoring system evaluated whether a PDTO was unresponsive or responsive to endoxifen and the degree of drug response for PDTOs that were responsive to endoxifen. […] The sensitivity category was determined from the sensitivity metric and is a measure of overall cell death of a patient's cells in response to endoxifen at six concentrations. […]"}, "[2]": {"test_system": "patient-derived tumor organoids (PDTOs), pancreatic ductal adenocarcinoma", "assay": "Endoxifen screen in PDTOs: pancreatic ductal adenocarcinoma", "set-up": "key to Personalization Category: Personalization categories range from High, Good, Moderate, Low, to None; Personalization categories range from High, Good, Moderate, Low, to None; Personalization categories range from High, Good, Moderate, Low, to None; Personalization categories range from High, Good, Moderate, Low, to None; Personalization categories range from High, Good, Moderate, Low, to None; key to Sensitivity Category: Sensitivity categories range from High, Good, Moderate, Low, to None; Sensitivity categories range from High, Good, Moderate, Low, to None; Sensitivity categories range from High, Good, Moderate, Low, to None; Sensitivity categories range from High, Good, Moderate, Low, to None; Sensitivity categories range from High, Good, Moderate, Low, to None; AUC: unit not given beside the values", "conditions": "each line one patient sample; for IC50: four-parameter logistic fit", "experimental": "as §1, §2\n(§4) The results were analyzed using a “SEngine Precision Medicine” (SPM) scoring system to assess the sensitivity and personalization of each tumor organoid to endoxifen. The SPM score correlates with clinical outcomes, such that a higher SPM score for a specific PDTO-drug combination predicts a more favorable clinical outcome following treatment of the corresponding patient with the tested drug.\n(§5) This example describes testing endoxifen efficacy against 17 distinct cancer types in patient-derived tumor organoids (PDTOs). Screening of PDTOs was performed as described in EXAMPLE 1. For each PDTO sample, the drug response was measured using a luminescent readout over a range of endoxifen concentrations. The drug response was evaluated based on the area under the fitted dose response curve (AUC) and the SPM scoring system. AUC values were normalized for each PDTO. Briefly, data points at each drug concentration were first normalized to a negative control, then a dose response drug curve was approximated using a four-parameter logistic model fitted to the normalized data points. The area under the curve was calculated from the normalized curve. Normalization allowed for comparison of AUC values between patient samples. The SPM scores were based on machine learning models that incorporate values for how well the drug kill patient cells (sensitivity metric), the relative drug responses of a patient to all other patients in a sample database (personalization metric), and knowledge of clinical outcomes for patients that had been evaluated with the personalized cancer screening assay (PARIS® Test, SEngine Precision Medicine).\nThe SPM scoring system evaluated whether a PDTO was unresponsive or responsive to endoxifen and the degree of drug response for PDTOs that were responsive to endoxifen. The SPM scoring system generated metrics an SPM score, predictive of clinical outcome, overall drug response (response category), drug sensitivity (sensitivity category), and drug personalization (personalization category). SPM scores ranged from 1-15, corresponding to the following drug response categories: no response (SPM 1-8), low response (SPM 9), moderate response (SPM 10-11), good response (SPM 12-13), and exceptional response (SPM 14-15). […] Moderate to good drug responses (SPM 10-13) may indicate that a drug has clinical relevance, possibly in combination with other drugs. The sensitivity category was determined from the sensitivity metric and is a measure of overall cell death of a patient's cells in response to endoxifen at six concentrations. […]"}, "[3]": {"test_system": "patient-derived tumor organoids (PDTOs), primary peritoneal carcinoma", "assay": "Endoxifen screen in PDTOs: primary peritoneal carcinoma", "set-up": "key to Personalization Category: Personalization categories range from High, Good, Moderate, Low, to None; Personalization categories range from High, Good, Moderate, Low, to None; Personalization categories range from High, Good, Moderate, Low, to None; Personalization categories range from High, Good, Moderate, Low, to None; Personalization categories range from High, Good, Moderate, Low, to None; key to Sensitivity Category: Sensitivity categories range from High, Good, Moderate, Low, to None; Sensitivity categories range from High, Good, Moderate, Low, to None; Sensitivity categories range from High, Good, Moderate, Low, to None; Sensitivity categories range from High, Good, Moderate, Low, to None; Sensitivity categories range from High, Good, Moderate, Low, to None; AUC: unit not given beside the values", "experimental": "as §1, §2, §4, §5, §3"}},
  "note": "Values joined by “and” are separate entries in the source; they are usually repeats but may differ in a detail not shown here. Equal entries are not always repeated. “Also recorded” adds a separate entry of the source.",
  "data": [
    {"smiles": "CC/C(=C(\\c1ccc(O)cc1)c1ccc(OCCNC)cc1)c1ccccc1", "note": "[Endoxifen, 4-hydroxy-N-desmethyltamoxifen]", "values": [
      {"measurement": "IC50", "setting": "[1]; Homo sapiens, Patient 14, four-parameter logistic fit", "result": 3.97, "unit": "µM"},
      {"measurement": "Personalization Category", "setting": "[1]; Patient 14", "result": "Good"},
      {"measurement": "AUC", "setting": "[1]; Patient 14, normalized area under fitted dose response curve", "result": 0.7771},
      {"measurement": "SPM Score", "setting": "[1]; Patient 14, score range 1-15", "result": 11},
      {"measurement": "IC50", "setting": "[2]; Homo sapiens", "result": 4.47, "unit": "µM"},
      {"measurement": "Personalization Category", "setting": "[2]", "result": "Good and Low and None"},
      {"measurement": "Response Category", "setting": "[2]", "result": "Moderate (moderate response (SPM 10-11)); also recorded: Low (low response (SPM 9)); also recorded: None (no response (SPM 1-8))"},
      {"measurement": "Sensitivity Category", "setting": "[2]", "result": "Low and None"},
      {"measurement": "IC50", "setting": "[2]", "result": 5.83, "unit": "µM"},
      {"measurement": "AUC", "setting": "[2]; normalized area under fitted dose response curve", "result": "0.8283 and 0.8839 and 1.1358"},
      {"measurement": "SPM Score", "setting": "[2]; score range 1-15", "result": "11 and 9 and 1"},
      {"measurement": "IC50", "setting": "[3]; Homo sapiens, patient 72, four-parameter logistic fit", "result": 9.37, "unit": "µM"},
      {"measurement": "Personalization Category", "setting": "[3]; patient 72", "result": "None"},
      {"measurement": "Sensitivity Category", "setting": "[3]; patient 72", "result": "None"},
      {"measurement": "AUC", "setting": "[3]; patient 72, normalized area under fitted dose response curve", "result": 0.9623},
      {"measurement": "SPM Score", "setting": "[3]; patient 72, score range 1-15", "result": 1}
    ]}
  ]
}
